The target in data set [1] is Human immunodeficiency virus type 1 protease (Human immunodeficiency virus 1, UniProt Q72874). The experiment in a line: Ability to inhibit purified recombinant HIV-1 protease.
For data set [2], the target named is Cathepsin D (Homo sapiens, UniProt P07339). The experiment in a line: Ability to inhibit the human Native cathepsin D aspartic protease enzyme.
Data set [3] has as its target T1, Cathepsin E (Homo sapiens, UniProt P14091).
T1 sequence (P14091 whole entry): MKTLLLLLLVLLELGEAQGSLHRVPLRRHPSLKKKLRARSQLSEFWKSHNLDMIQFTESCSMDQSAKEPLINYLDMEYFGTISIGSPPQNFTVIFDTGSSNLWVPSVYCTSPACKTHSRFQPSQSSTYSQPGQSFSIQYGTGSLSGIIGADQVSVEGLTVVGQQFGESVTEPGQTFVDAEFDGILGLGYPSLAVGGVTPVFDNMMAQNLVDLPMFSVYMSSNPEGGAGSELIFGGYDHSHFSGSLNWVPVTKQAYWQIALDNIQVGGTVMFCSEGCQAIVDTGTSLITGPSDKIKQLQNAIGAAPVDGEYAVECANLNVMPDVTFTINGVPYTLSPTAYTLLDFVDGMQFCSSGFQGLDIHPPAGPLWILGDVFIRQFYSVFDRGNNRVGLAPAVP
The experiment in a line: Ability to inhibit the human Native cathepsin E aspartic protease enzyme.

A short description of data set [4]: In vitro toxic concentration against HIV-1 IIIb H9-infected cells. To be noted: human, HIV-1 IIIb-infected H9 cells; read-out: TC50 (the source's name). The format is cell-based.
In data set [5] the target is T2, Renin (Homo sapiens, UniProt P00797).
T2 sequence (P00797 whole entry): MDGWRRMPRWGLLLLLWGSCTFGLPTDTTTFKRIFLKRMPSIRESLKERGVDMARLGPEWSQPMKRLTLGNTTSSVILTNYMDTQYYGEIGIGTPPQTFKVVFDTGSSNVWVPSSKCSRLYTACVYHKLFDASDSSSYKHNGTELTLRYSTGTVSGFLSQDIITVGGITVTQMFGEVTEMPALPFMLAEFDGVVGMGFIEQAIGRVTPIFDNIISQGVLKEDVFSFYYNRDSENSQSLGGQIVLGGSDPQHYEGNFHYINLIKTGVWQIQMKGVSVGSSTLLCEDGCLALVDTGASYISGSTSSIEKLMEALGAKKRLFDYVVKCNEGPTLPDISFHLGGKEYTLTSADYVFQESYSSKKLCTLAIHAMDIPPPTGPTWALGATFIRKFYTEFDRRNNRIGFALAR
Briefly: Ability to inhibit the human recombinant renin aspartic protease enzyme.

Chain of Cathepsin D (P07339 65-162 limits assumed): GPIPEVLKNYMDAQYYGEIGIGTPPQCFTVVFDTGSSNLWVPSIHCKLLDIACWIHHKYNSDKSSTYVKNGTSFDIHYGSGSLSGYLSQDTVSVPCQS
Chain of Cathepsin D (P07339 169-412 limits assumed): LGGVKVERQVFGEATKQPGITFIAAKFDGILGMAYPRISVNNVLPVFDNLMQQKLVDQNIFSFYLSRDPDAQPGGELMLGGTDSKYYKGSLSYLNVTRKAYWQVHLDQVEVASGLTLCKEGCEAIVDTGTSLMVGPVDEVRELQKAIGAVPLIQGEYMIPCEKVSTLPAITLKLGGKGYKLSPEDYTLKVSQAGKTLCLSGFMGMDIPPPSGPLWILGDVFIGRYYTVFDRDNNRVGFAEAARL

On to `O=c1cc(-c2ccccc2)oc(O)c1C(CC1CCCC1)SC1CCCCC1` (stereo unspecified), for which the concentration for half-maximal inhibition (IC50) in data set [1] was determined as 541 nM.
With `O=c1cc(-c2ccccc2)oc(O)c1C(CC1CC1)SC1CCCC1` (stereo unspecified), the Ki in data set [1] worked out at 0.069 nM.
On to `CC(C)CC(SC1CCCC1)c1c(O)cc(-c2ccccc2)oc1=O` (stereo unspecified), for which the concentration for half-maximal inhibition (IC50) was over 40000 nM in data set [2], over 40000 nM in data set [3], 58 nM in data set [1] and over 10000 nM in data set [5]. The CC50 in data set [4] was 28000 nM.
In the case of `CC(C)CC(Sc1ccccc1)c1c(O)cc(-c2ccccc2)oc1=O` (stereo unspecified), in data set [1], the IC50 worked out at 410 nM.
For the molecule `CC(C)(C)CC(SC1CCCCC1)c1c(O)cc(-c2ccccc2)oc1=O` (stereo unspecified), in data set [1], the half-inhibitory concentration (IC50) was 300 nM.
Consider `O=c1cc(-c2ccccc2)oc(O)c1C(CC1CC1)SCc1ccccc1` (stereo unspecified), for which the IC50 was over 40000 nM in data set [2], over 40000 nM in data set [3], 84 nM in data set [1] and over 10000 nM in data set [5]. The CC50 in data set [4] is 68000 nM.
In the case of `CC(C)CCC(Sc1ccccc1)c1c(O)cc(-c2ccccc2)oc1=O` (stereo unspecified), the IC50 in data set [1] worked out at 390 nM.
For `CC(C)CC(SCc1ccccc1)c1c(O)cc(-c2ccccc2)oc1=O` (stereo unspecified), in data set [4], the CC50 turned out to be 67000 nM. Moreover, the IC50 in data set [1] was 260 nM.
Consider `O=c1cc(-c2ccccc2)oc(O)c1C(SCc1ccccc1)c1ccccc1` (stereo unspecified), for which the CC50 in data set [4] was determined as 61000 nM. For the same molecule, the IC50 in data set [1] was determined as 480 nM.
Regarding `O=c1cc(-c2ccccc2)oc(O)c1C(Sc1ccc2ccccc2c1)c1ccccc1` (stereo unspecified), the half-inhibitory concentration (IC50) in data set [1] stood at 2450 nM.
Still for that read-out and setting: the figure for `O=c1cc(-c2ccccc2)oc(O)c1C(Sc1ccccc1)c1ccccc1` (stereo unspecified) is 780 nM.
As to `O=c1cc(-c2ccccc2)oc(O)c1C(Sc1ccccc1)C1CCCCC1` (stereo unspecified), the IC50 in data set [1] came to 2440 nM.
Consider `CC(C)CC(SCC1CCCCC1)c1c(O)cc(-c2ccccc2)oc1=O` (stereo unspecified), for which the IC50 in data set [1] is 848 nM.
As to `O=c1cc(-c2ccccc2)oc(O)c1C(CC1CC1)SC1CCCCC1` (stereo unspecified), the CC50 in data set [4] amounted to 67000 nM. In data set [1], the IC50 amounted to 147 nM.
For the molecule `O=c1cc(-c2ccccc2)oc(O)c1C(Sc1ccccc1)c1ccc2ccccc2c1` (stereo unspecified), the IC50 in data set [1] was determined as 7820 nM.
As for `O=c1cc(-c2ccccc2)oc(O)c1C(SC1CCCC1)C1CCCC1` (stereo unspecified), the CC50 in data set [4] was determined as 70000 nM. The IC50 in data set [1] came to 225 nM.
On to `CC(C)CC(SC1CCCCC1)c1c(O)cc(-c2ccccc2)oc1=O` (stereo unspecified), for which, in data set [1], the IC50 turned out to be 320 nM.
For the molecule `O=c1cc(-c2ccccc2)oc(O)c1C(SC1CCCCC1)c1ccccc1` (stereo unspecified), in data set [1], the half-inhibitory concentration (IC50) turned out to be 480 nM.
The same measure, in the same setting: the figure for `O=c1cc(-c2ccccc2)oc(O)c1CSc1ccccc1` is 84300 nM.

For orientation: IC50 means the concentration that gives 50% inhibition. As a reminder, the Ki is a measure of affinity in units of concentration, obtained from inhibition or displacement.

For the origin of these results see ChEMBL document CHEMBL1128706, “Nonpeptidic potent HIV-1 protease inhibitors: (4-hydroxy-6-phenyl-2-oxo-2H- pyran-3-yl)thiomethanes that span P1-P2' subsites in a unique mode of active site binding” (J Med Chem, 1995).
